Legend:
[1] = tested on: microorganisms
[2] = tested on: Daphnia magna

## Starch Maleate Half Ester, Crosslinked with 0.08 Eq. Triglycol Dichloride [Example 21]
[1]
  toxicity for microorganisms: no toxicity
[2]
  toxic product destroying the aquatic flora: no toxic product have been detected
